Results reported in US20250296939A1, “BENZOTHIOPHENE COMPOUND” (Kyoto Pharmaceutical Industries, Ltd., priority 2022, published 2025).

Tests used:
[1] = target: GST-fused human Keap1 (amino acid residues: 325-642) protein (Homo sapiens (Human), UniProt Q14145); assay: FP assay (in vitro): inhibition of binding between Nrf2 and Keap1 by fluorescence polarization; conditions: 20 nM GST-fused human Keap1, 10 nM FITC-labeled Nrf2 peptide, 2 hr at room temperature
Experimental: Experimental Example 1: FP Assay (In Vitro)
The inhibitory activity of test compounds on the binding between Nrf2 and Keap1 was determined by fluorescence polarization. A solution of 50 mM Tris-HCl pH.8.0 (NACALAI, REF: 06938-15), and 5 mM DTT (SIGMA-ALDRICH, REF: 646563-10X.5 mL) was used as a buffer solution. 8 μL of a buffer solution containing 40 nM GST-fused human Keap1 (amino acid residues: 325-642) protein (Protein tech, REF: Ag0779) was taken in a black 384-well plate (final concentration 20 nM), and 4 μL of the test compound solution prepared to each concentration in buffer solution was added thereto. A well containing a portion of the buffer solution without Keap1 was placed as a negative control. A well with no compound was used as a positive control. 40 nM of FITC-labeled Nrf2 peptide (FITC-X-LQLDEETGEFLPIQ (X=ε-Acp), Peptide Institute Inc.) was added thereto (10 nM final concentration). The wells were incubated at room temperature for 2 hr, and then fluorescence polarization was measured with a plate reader SPECTRAMAX Paradigm (Molecular devices) at excitation wavelength of 485 nm and fluorescence wavelength of 535 nm. The fluorescence polarization of the negative control was set to 100% inhibition and that of the positive control to 0% inhibition, and the inhibitory rate upon addition of the test compound was calculated using the following formula.

[2] = test system: NQO1 activity in Hepa1c1c7 cells; assay: NAD(P)H: quinone oxidoreductase-1 (NQO1) enzyme induction assay (in vitro); assay type: cell-based, mouse; conditions: Mus musculus, Hepa-1c1c7, NQO1 activity upon addition of 400 nM of test compound, about 48 hr, ratio from the base without the compound
Experimental: Experimental Example 2: NAD(P)H: Quinone Oxidoreductase-1 (NQO1) Enzyme Induction Assay (In Vitro)
The NQO1 assay was performed based on a previous report (Methods in Enzymology 2004; 382: 243-258). Hepa1c1c7 cells (mouse hepatocyte cell line, ATCC, cat. no. CRL-2026) were cultured in D-MEM medium containing 10% FBS and 1% penicillin/streptomycin (5% CO2, 37° C.), and seeded into 96-well plates (Corning REF. 353072) at 1×10^4 cells/well. A portion of the wells were prepared with medium only for background measurement without seeding cells. The next day, 400 nM of the test compound (0.004% of the final concentration in DMSO) dissolved in DMSO was added thereto, and the wells were incubated for about 48 hr. A well without adding the test compound was prepared for base activity assay in part.
Cell lysate (solution containing 0.8% digitonin, 2 mM EDTA), reaction solution (solution containing 25 mM Tris-HCl, 0.07% albumin, 0.01% Tween-20, 2 U/mL glucose-6-phosphate dehydrogenase, 5 μM flavin adenine dinucleotide, 1 μM glucose-6-phosphate, 30 μM nicotinamide adenine dinucleotide phosphate, 0.03% 3-(4,5-dimethyl-2-thiazolyl)-2,5-diphenyltetrazolium bromide (MTT), and 50 μM menadione), stop solution (solution containing 0.3 mM dicoumarol and 5 mM potassium dihydrogen phosphate, pH 7.4) were prepared. After the medium was removed, 50 μL of the cell lysate was added and incubated at 37° C. for 10 minutes, followed by shaking at room temperature for 10 minutes. 200 μL of reaction solution was added thereto, and allowed to stand for 5 minutes at room temperature. 50 μL of the stop solution was added thereto, and absorbance was measured at 610 nm on a SpectraMax PLUS384 (Molecular devices) or POWERSCAN HT (DS Pharma Biomedical). The test results were analyzed in Excel, and the NQO1 activity upon addition of 400 nM of test compound was calculated as a ratio from the base without the compound.
The results of each test compound in this test are shown in the following Table 2 (A: 5<NQO1 activity ratio, B: 3<NQO1 activity ratio 5, C: 1.5<NQO1 activity ratio 3).

Sequence of GST-fused human Keap1 (amino acid residues: 325-642) protein (Q14145 325-624 limits assumed): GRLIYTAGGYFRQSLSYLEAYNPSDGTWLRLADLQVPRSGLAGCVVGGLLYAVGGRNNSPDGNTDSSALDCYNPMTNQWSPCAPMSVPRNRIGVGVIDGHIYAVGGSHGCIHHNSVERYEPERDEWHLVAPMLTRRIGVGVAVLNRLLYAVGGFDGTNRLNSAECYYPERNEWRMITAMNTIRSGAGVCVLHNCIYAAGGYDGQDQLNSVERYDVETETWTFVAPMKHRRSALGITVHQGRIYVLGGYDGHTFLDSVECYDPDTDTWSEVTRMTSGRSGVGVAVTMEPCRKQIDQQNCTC

SMILES	IC50 [1] [nM]	fold induction at 0.4 µM [2]
Cc1c([C@H](CC(=O)O)c2cc(CN3Cc4nc(O)ccc4O[C@H](C)C3)c3sccc3c2)ccc2c1nnn2C [Example 16, (3R)-3-(1,4-Dimethyl-1H-benzotriazol-5-yl)-3-(7-{[(2R)-7-hydroxy-2-methyl-2,3-dihydropyrido[2,3-f][1,4]oxazepin-4(5H)-yl]methyl}-1-benzothiophen-5-yl)propanoic acid]	30 to 300	> 5
CC[C@@H]1CN(Cc2cc([C@H](CC(=O)O)c3cc(C)c4c(nnn4C)c3C)cc3ccsc23)Cc2nc(O)ccc2O1 [Example 17, (3S)-3-(7-{[(2R)-2-Ethyl-7-hydroxy-2,3-dihydropyrido[2,3-f][1,4]oxazepin-4(5H)-yl]methyl}-1-benzothiophen-5-yl)-3-(1,4,7-trimethyl-1H-benzotriazol-5-yl)propanoic acid]	30 to 300	> 5
CC[C@@H]1CN(Cc2cc([C@@H](CC(=O)O)c3cc(C)c4c(nnn4C)c3C)cc3ccsc23)Cc2nc(O)ccc2O1 [Example 18, (3R)-3-(7-{[(2R)-2-Ethyl-7-hydroxy-2,3-dihydropyrido[2,3-f][1,4]oxazepin-4(5H)-yl]methyl}-1-benzothiophen-5-yl)-3-(1,4,7-trimethyl-1H-benzotriazol-5-yl)propanoic acid]	30 to 300	> 5
CC[C@@H]1CN(Cc2cc([C@@H](CC(=O)O)c3ccc4c(nnn4CC(C)(C)O)c3C)cc3ccsc23)Cc2nc(O)ccc2O1 [Example 19, (3R)-3-(7-{[(2R)-2-Ethyl-7-hydroxy-2,3-dihydropyrido[2,3-f][1,4]oxazepin-4(5H)-yl]methyl}-1-benzothiophen-5-yl)-3-[1-(2-hydroxy-2-methylpropyl)-4-methyl-1H-benzotriazol-5-yl]propanoic acid]	30 to 300	3 to 5
CC[C@@H]1CN(Cc2cc([C@@H](CC(=O)O)c3cnc4c(nnn4C)c3C)cc3ccsc23)Cc2nc(O)ccc2O1 [Example 23, (3R)-3-(3,7-Dimethyl-3H-[1,2,3]triazolo[4,5-b]pyridin-6-yl)-3-(7-{[(2R)-2-ethyl-7-hydroxy-2,3-dihydropyrido[2,3-f][1,4]oxazepin-4(5H)-yl]methyl}-1-benzothiophen-5-yl)propanoic acid]	30 to 300	3 to 5
CC[C@@H]1CN(Cc2cc([C@H](CC(=O)O)c3cc(C(F)(F)F)c4c(nnn4C)c3C)cc3ccsc23)Cc2nc(O)ccc2O1 [Example 30, (3S)-3-[1,4-Dimethyl-7-(trifluoromethyl)-1H-benzotriazol-5-yl]-3-(7-{[(2R)-2-ethyl-7-hydroxy-2,3-dihydropyrido[2,3-f][1,4]oxazepin-4(5H)-yl]methyl}-1-benzothiophen-5-yl)propanoic acid]	10 to 30	> 5
CC[C@@H]1CN(Cc2cc([C@H](CC(=O)O)c3cc(Cl)c4c(nnn4C)c3C)cc3ccsc23)Cc2nc(O)ccc2O1 [Example 32, (3S)-3-(7-Chloro-1,4-dimethyl-1H-benzotriazol-5-yl)-3-(7-{[(2R)-2-ethyl-7-hydroxy-2,3-dihydropyrido[2,3-f][1,4]oxazepin-4(5H)-yl]methyl}-1-benzothiophen-5-yl)propanoic acid]	10 to 30	> 5

Now from value to molecule, other results behind:

IC50 [1] [nM]	SMILES	fold induction at 0.4 µM [2]
10 to 30	Cc1c([C@@H](CC(=O)O)c2cc(CN3Cc4nc(O)ccc4O[C@H](C)C3)c3sccc3c2)ccc2c1nnn2C [Example 15, (3S)-3-(1,4-Dimethyl-1H-benzotriazol-5-yl)-3-(7-{[(2R)-7-hydroxy-2-methyl-2,3-dihydropyrido[2,3-f][1,4]oxazepin-4(5H)-yl]methyl}-1-benzothiophen-5-yl)propanoic acid]	> 5
10 to 30	CC[C@@H]1CN(Cc2cc([C@H](CC(=O)O)c3ccc4c(nnn4CC(C)(C)O)c3C)cc3ccsc23)Cc2nc(O)ccc2O1 [Example 20, (3S)-3-(7-{[(2R)-2-Ethyl-7-hydroxy-2,3-dihydropyrido[2,3-f][1,4]oxazepin-4(5H)-yl]methyl}-1-benzothiophen-5-yl)-3-[1-(2-hydroxy-2-methylpropyl)-4-methyl-1H-benzotriazol-5-yl]propanoic acid]	3 to 5
10 to 30	CC[C@@H]1CN(Cc2cc([C@@H](CC(=O)O)c3cc(OC)c4c(nnn4C)c3C)cc3ccsc23)Cc2nc(O)ccc2O1 [Example 21, (3R)-3-(7-{[(2R)-2-Ethyl-7-hydroxy-2,3-dihydropyrido[2,3-f][1,4]oxazepin-4(5H)-yl]methyl}-1-benzothiophen-5-yl)-3-(7-methoxy-1,4-dimethyl-1H-benzotriazol-5-yl)propanoic acid]	> 5
≤ 10	CC[C@@H]1CN(Cc2cc([C@H](CC(=O)O)c3cc(OC)c4c(nnn4C)c3C)cc3ccsc23)Cc2nc(O)ccc2O1 [Example 22, (3S)-3-(7-{[(2R)-2-Ethyl-7-hydroxy-2,3-dihydropyrido[2,3-f][1,4]oxazepin-4(5H)-yl]methyl}-1-benzothiophen-5-yl)-3-(7-methoxy-1,4-dimethyl-1H-benzotriazol-5-yl)propanoic acid]	3 to 5
10 to 30	CC[C@@H]1CN(Cc2cc([C@H](CC(=O)O)c3cnc4c(nnn4C)c3C)cc3ccsc23)Cc2nc(O)ccc2O1 [Example 24, (3S)-3-(3,7-Dimethyl-3H-[1,2,3]triazolo[4,5-b]pyridin-6-yl)-3-(7-{[(2R)-2-ethyl-7-hydroxy-2,3-dihydropyrido[2,3-f][1,4]oxazepin-4(5H)-yl]methyl}-1-benzothiophen-5-yl)propanoic acid]	3 to 5
10 to 30	CC[C@@H]1CN(Cc2cc([C@@H](CC(=O)O)c3ccc4c(nnn4CCN(C)C)c3C)cc3ccsc23)Cc2nc(O)ccc2O1 [Example 25, (3R)-3-{1-[2-(Dimethylamino)ethyl]-4-methyl-1H-benzotriazol-5-yl}-3-(7-{[(2R)-2-ethyl-7-hydroxy-2,3-dihydropyrido[2,3-f][1,4]oxazepin-4(5H)-yl]methyl}-1-benzothiophen-5-yl)propanoic acid]	> 5
10 to 30	CC[C@@H]1CN(Cc2cc([C@H](CC(=O)O)c3ccc4c(nnn4CCN(C)C)c3C)cc3ccsc23)Cc2nc(O)ccc2O1 [Example 26, (3S)-3-{1-[2-(Dimethylamino)ethyl]-4-methyl-1H-benzotriazol-5-yl}-3-(7-{[(2R)-2-ethyl-7-hydroxy-2,3-dihydropyrido[2,3-f][1,4]oxazepin-4(5H)-yl]methyl}-1-benzothiophen-5-yl)propanoic acid]	3 to 5
10 to 30	CC[C@@H]1CN(Cc2cc([C@@H](CC(=O)O)c3cc(C(F)(F)F)c4c(nnn4C)c3C)cc3ccsc23)Cc2nc(O)ccc2O1 [Example 29, (3R)-3-[1,4-Dimethyl-7-(trifluoromethyl)-1H-benzotriazol-5-yl]-3-(7-{[(2R)-2-ethyl-7-hydroxy-2,3-dihydropyrido[2,3-f][1,4]oxazepin-4(5H)-yl]methyl}-1-benzothiophen-5-yl)propanoic acid]	> 5
≤ 10	CC[C@@H]1CN(Cc2cc([C@@H](CC(=O)O)c3cc(Cl)c4c(nnn4C)c3C)cc3ccsc23)Cc2nc(O)ccc2O1 [Example 31, (3R)-3-(7-Chloro-1,4-dimethyl-1H-benzotriazol-5-yl)-3-(7-{[(2R)-2-ethyl-7-hydroxy-2,3-dihydropyrido[2,3-f][1,4]oxazepin-4(5H)-yl]methyl}-1-benzothiophen-5-yl)propanoic acid]	> 5
